Measurements taken from PMC12586598, “A novel long-acting C5a-blocking cyclic peptide prevents sepsis-induced organ dysfunction via effective blockade of the inflammatory cascade” (Signal Transduction and Targeted Therapy, 2025).
Where a SMILES comes first, the peptide text is derived from it.

How the values were obtained:
[1] = molecular target: T1, mouse C5a-desArg (Mus musculus, UniProt P06684); test: SPR binding affinity assay, immobilized mouse C5a-desArg
T1 construct: mouse C5a-desArg (MCE, Shanghai, China); purchased MCE
T1 sequence (P06684 679-754 limits assumed): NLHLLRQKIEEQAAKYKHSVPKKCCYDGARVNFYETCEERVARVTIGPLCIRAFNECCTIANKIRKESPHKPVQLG
Method: (§1) Surface plasmon resonance (SPR) analysis was conducted using Biacore 2000 system (GE Healthcare, Germany) at 37°C in running buffer (20 mM Tris-HCl, pH 7.4, 150 mM NaCl, 5 mM KCl, 1 mM MgCl₂, 1 mM CaCl₂). The CM5 sensor chips (GE Healthcare) were activated with NHS/EDC, followed by immobilization of mouse C5a (ACROBiosystems, Beijing, China), human C5a (ACROBiosystems, Beijing, China), mouse C5 (ACROBiosystems, Beijing, China) or mouse C5a-desArg (MCE, Shanghai, China). The peptide-protein interactions were characterized using a concentration-gradient approach (low to high) with a continuous flow rate of 30 μL/min (150 s injection duration). Between analyte concentrations, the sensor surface was regenerated with 10 mM glycine-HCl (pH 2.0; 5 min treatment). Binding and dissociation constants were obtained by globally fitting the data to a 1:1 Langmuir binding model using a Biacore Insight evaluation software (Cytiva, USA).

[2] = tested on: mouse neutrophils; test: C5a-triggered chemotaxis assay, mouse neutrophils (IncuCyte); format: cell-based; details: 10 ng to 1 μg per well, 24 h
Method: The chemotaxis assay in this study was monitored and quantified by the IncuCyte ZOOM® Live-Cell Imaging System. The y-axis label “total area normalized to initial area in each group” in Fig. 3k, m represent the ratio of the total cell area at each time point to the initial area (0 h) within the same field of view. A higher ratio indicates […] cell migration activity.
One hundred nanograms of human C5a protein (ACROBiosystems, Beijing, China) was preincubated with linear or cyclic peptides at the indicated concentrations (10 ng, 100 ng, or 1 μg) in 1640 complete culture medium for 30 min. PMNs isolated by flow cytometric sorting for chemotaxis assays were purchased from Oribiotech Co., Ltd. (Shanghai, China). A total of 1 × 10^4 cells were added to the upper chamber of 96-well cell chemotaxis plates (Sartorius, Germany) and allowed to migrate at 37 °C for 24 h. The chemotactic response of neutrophils toward C5a with or without C5a-blocking peptides was quantified and analyzed via an IncuCyte ZOOM® Live-Cell Imaging System (Sartorius, Germany). The chemotactic response of mouse neutrophils was assessed following the established protocol for PMNs.

[3] = molecular target: T2, mouse C5a (Mus musculus, UniProt P06684); test: Plasma C5a/C5 ratio by ELISA after Cp1; format: in vivo; details: 100 μg/20 g, normal mice or CLP model mice
T2 sequence (P06684 679-755 limits assumed): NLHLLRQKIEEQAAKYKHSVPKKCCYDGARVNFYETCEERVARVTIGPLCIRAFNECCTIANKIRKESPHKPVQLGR
Excerpt: We evaluated the in vivo neutralization of Cp1 against C5a by measuring the plasma C5a/C5 ratio in normal mice or CLP model mice.

[4] = tested on: CLP-induced septic mice; test: Bacterial burden in blood (CFU) of CLP mice; format: in vivo, mouse
Method: Whole blood samples were aseptically dropped onto nutrient agar plates. Glass beads were added, and the samples were rocked horizontally to ensure the uniform distribution of blood samples. The inoculated plates were incubated at 37 °C for 24 h, after which colony-forming units (CFUs) were counted. The colonies on the culture plates were counted via ProtoCOL 3 HD (Synbiosis, UK).

[5] = tested on: CLP-induced septic mice; test: Kaplan-Meier survival of CLP model mice; format: in vivo, mouse
Method: The cecal ligation and puncture (CLP) model was established in male C57BL/6 mice (9-10 weeks old). Briefly, a midline laparotomy was performed to exteriorize the cecum under general anesthesia. The cecum was ligated at the distal three-quarters using sutures. Subsequently, a single through-and-through puncture was made in the ligated segment using a 22-gaμge needle, followed by small volume of fecal content was gentle extrusion. The cecum was then repositioned within abdominal cavity, and the laparotomy incision was closed in layers. All animals were administered 1 mL of sterile saline for postoperative fluid resuscitation. Sham-operated controls underwent identical surgical procedures without cecal ligation or puncture. In this work, mice received administration via intravenous injection 1 hour after CLP surgery. The animal mortality was determined by the presence of confirmed death. […] Blood samples were collected 24 hours after CLP-modeling for hematological analysis (Mindray BC-60R Vet) and biochemical analysis (Mindray BS-240 Vet, China), endothelial injury analysis (Njjcbio, Nanjing) and coagulation analysis (Legene, Beijing). Subsequently, mice were sacrificed to collect the main organs for morphological and pathological analysis.

[6] = tested on: CLP-treated mice; test: Response to secondary infection, short-term exposure: LPS stimulation of whole blood; format: in vivo, mouse; details: blood taken 24 h post-CLP surgery, 1 μg LPS
Method: To evaluate the impact of short-term (24 h) drug exposure on the secondary infection response. Whole blood samples were collected from each group at 24 h post-CLP surgery and stimulated with 1 μg of LPS. The IL-6 levels at 0 h, 2 h, and 4 h poststimulation were quantified via an ELISA kit.

[7] = tested on: human peripheral blood mononuclear cells (PBMCs); test: RNA sequencing of C5a-stimulated PBMCs; format: cell-based; details: |log2FoldChange| ≥ 1, P < 0.05
Method: Human peripheral mononuclear cells were stimulated with 100 ng/mL of human C5a protein (MCE, China) or a complex of human C5a with Cp1 for 1 h. After RNA extraction, purification and library construction, the Next-Generation Sequencing (NGS) technology was used to perform paire-end (PE) sequencing based on Illumina sequencing platform in Bioprofile Biotechnology Co., Ltd (Shanghai, China). The expression of each gene was calculated and further subjected to differential expression analysis, enrichment analysis and cluster analysis.

[8] = in vitro; details: C57BL/6, mouse, plasma
Excerpt: The peptides in the plasma were extracted with 15% TFA and quantified via reversed-phase high-performance liquid chromatography (HPLC) (Agilent 1260, USA).

[9] = molecular target: T2, mouse C5a; test: SPR binding affinity assay, immobilized mouse C5a; set-up: immobilization of mouse C5a (ACROBiosystems, Beijing, China); purchased ACROBiosystems
Method: as §1

CSCC[C@@H]1NC(=O)[C@@H]2CCCN2C(=O)[C@H](CCSC)NC(=O)[C@H](CO)NC(=O)[C@H](Cc2c[nH]cn2)NC(=O)CNC(=O)[C@H](CO)NC(=O)[C@H](Cc2ccccc2)NC(=O)[C@H](CCCNC(=N)N)NC(=O)[C@H](CCC(=O)O)NC(=O)[C@H](Cc2ccccc2)NC(=O)[C@H](C(C)C)NC1=O [Cp1] (cyclo(HSMPMVFERFSG))
kon ([1]; pH 7.4, read-out: Ka vs mC5a-desArg (SPR)): 2490 M⁻¹ s⁻¹ | koff ([1]; read-out: Kd (dissociation rate) vs mC5a-desArg (SPR)): 0.0089 s⁻¹ | suppression of C5a-driven recruitment of mouse neutrophils [2]: dose-dependently suppressed | plasma C5a/C5 ratio [3]: decreased ratio of C5a/C5 | reduction of bacterial burden (CFUs/mL in blood) vs CLP ([4]; 100 μg Cp1, 24 h post-CLP): 93% | reduction of bacterial burden (CFUs/mL in blood) vs CLP ([4]; 300 μg Cp1, 24 h post-CLP): 86% | improvement in the median survival time vs untreated CLP group ([5]; mouse, in vivo): 300% | 7-day survival rate ([5]; single administration 100 μg/20 g, n = 10): 60% | IL-6 level at 2 h post-LPS stimulation vs CLP control group [6]: obviously increased IL-6 levels | DEGs downregulated after Cp1 preincubation [7]: 2235 | remaining at 24 h [8]: > 95% | kon ([9]; pH 7.4, read-out: Ka vs mC5a (SPR)): 63800 M⁻¹ s⁻¹ | koff ([9]; read-out: Kd (dissociation rate) vs mC5a (SPR)): 0.359 s⁻¹
